From ChEMBL document CHEMBL6109164, “Discovery of Novel DDR1 Inhibitors through a Hybrid Virtual Screening Pipeline, Biological Evaluation and Molecular Dynamics Simulations” (ACS Med Chem Lett, 2025)
Calls of active or inactive are those of the source. No cut-off for these calls is given here.

Legend:
[1] = system: Z-138; assay: Cytotoxicity against human Z138 cells assessed as reduction in cell viability; format: functional, cell-based
[2] = molecular target: Epithelial discoidin domain-containing receptor 1 (Homo sapiens) (UniProt Q08345); assay: Binding affinity to DDR1 (unknown origin) at VAL624 residue assessed as occupancy relative to control
[3] = molecular target: Epithelial discoidin domain-containing receptor 1 (Homo sapiens) (UniProt Q08345); assay: Binding affinity to DDR1 (unknown origin) at LYS655 residue assessed as occupancy relative to control

Epithelial discoidin domain-containing receptor 1 (Homo sapiens), sequence (Q08345 whole entry, the tested form may be a part): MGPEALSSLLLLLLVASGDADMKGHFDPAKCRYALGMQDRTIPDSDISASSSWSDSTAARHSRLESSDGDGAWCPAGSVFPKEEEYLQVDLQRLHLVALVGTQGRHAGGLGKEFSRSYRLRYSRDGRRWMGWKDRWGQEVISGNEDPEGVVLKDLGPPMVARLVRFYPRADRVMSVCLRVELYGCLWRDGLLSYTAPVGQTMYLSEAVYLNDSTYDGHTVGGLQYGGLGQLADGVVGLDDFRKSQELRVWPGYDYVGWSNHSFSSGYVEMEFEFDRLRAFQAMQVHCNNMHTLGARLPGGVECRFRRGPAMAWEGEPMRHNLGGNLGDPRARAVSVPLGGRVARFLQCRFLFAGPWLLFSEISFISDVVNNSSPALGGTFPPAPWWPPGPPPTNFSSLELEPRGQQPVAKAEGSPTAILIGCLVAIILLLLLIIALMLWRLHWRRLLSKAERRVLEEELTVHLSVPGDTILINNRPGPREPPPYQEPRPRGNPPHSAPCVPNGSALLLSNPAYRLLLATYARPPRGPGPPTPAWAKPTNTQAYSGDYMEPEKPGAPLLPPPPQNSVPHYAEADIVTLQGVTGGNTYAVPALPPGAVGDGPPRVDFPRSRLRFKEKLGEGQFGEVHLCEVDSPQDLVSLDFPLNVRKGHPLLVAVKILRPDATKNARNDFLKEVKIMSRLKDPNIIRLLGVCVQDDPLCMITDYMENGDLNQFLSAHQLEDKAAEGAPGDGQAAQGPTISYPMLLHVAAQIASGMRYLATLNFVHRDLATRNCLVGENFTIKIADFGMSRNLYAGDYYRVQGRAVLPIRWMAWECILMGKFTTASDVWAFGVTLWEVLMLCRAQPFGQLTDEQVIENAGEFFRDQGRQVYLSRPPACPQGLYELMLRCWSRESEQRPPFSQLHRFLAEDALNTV

Row | SMILES | Activity [1] | Occ [2] | Occ [3]
1 | Cc1cc(Nc2cc(N3CCN(C)CC3)nc(Sc3ccc(NC(=O)C4CC4)cc3)n2)n[nH]1 | Active |  | 
2 | CN1CCN(c2ccc(C(=O)Nc3n[nH]c4ccc(Cc5cc(F)cc(F)c5)cc34)c(NC3CCOCC3)c2)CC1 | Active | 82.8% | 69.9%
